These results are taken from paper PMC7853427 (Journal of the American Chemical Society, 2021).

The assay has as its target E. coli PheRS (Escherichia coli, UniProt P08312). The assay is described as follows: inhibition of Phe activation by purified PheRS. Type of assay: biochemical.

Structures are written as SMILES.

Sequence of E. coli PheRS (P08312 whole entry): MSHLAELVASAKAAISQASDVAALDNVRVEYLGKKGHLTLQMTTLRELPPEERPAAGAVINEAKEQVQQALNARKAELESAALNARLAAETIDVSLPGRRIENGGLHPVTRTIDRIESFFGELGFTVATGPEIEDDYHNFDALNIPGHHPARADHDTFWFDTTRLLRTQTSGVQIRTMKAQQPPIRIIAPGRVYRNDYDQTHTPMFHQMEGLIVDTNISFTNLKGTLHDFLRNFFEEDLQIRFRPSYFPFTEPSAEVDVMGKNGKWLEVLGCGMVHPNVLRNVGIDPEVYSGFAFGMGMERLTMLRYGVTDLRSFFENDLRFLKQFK
Sequence of E. coli PheRS (P07395 whole entry partner): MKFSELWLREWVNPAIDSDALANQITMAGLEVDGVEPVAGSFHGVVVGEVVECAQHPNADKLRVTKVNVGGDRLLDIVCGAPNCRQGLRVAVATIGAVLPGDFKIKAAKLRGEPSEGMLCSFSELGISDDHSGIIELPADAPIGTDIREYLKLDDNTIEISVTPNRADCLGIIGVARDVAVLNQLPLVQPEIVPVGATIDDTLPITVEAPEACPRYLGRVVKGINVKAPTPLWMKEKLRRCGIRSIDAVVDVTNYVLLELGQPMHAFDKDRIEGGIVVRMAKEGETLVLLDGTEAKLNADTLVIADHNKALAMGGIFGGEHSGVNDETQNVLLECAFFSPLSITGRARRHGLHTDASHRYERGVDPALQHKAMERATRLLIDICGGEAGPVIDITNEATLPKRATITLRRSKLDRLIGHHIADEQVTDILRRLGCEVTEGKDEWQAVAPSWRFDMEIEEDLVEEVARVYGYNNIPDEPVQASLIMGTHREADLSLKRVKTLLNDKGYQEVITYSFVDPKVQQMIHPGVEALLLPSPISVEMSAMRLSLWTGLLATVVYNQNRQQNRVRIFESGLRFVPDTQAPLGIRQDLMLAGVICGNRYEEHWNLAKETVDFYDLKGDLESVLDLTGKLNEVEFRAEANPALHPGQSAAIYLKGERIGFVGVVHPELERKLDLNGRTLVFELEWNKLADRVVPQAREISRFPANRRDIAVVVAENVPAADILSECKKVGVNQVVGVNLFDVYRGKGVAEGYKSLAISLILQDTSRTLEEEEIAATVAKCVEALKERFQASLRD

One may read the IC50 as the concentration that inhibits the measured activity by half. Read a low IC50 as greater potency. Regarding `CC(Cc1ccccc1)NCc1ccccc1` (stereo not shown) [compound 20, norbenzamphetamine], the half-inhibitory concentration (IC50) is 169 µM.
